Earlier results as cited in US20250282901A1, “POLYMERIC CHELATORS CROSS-LINKED WITH HIGH MOLECULAR WEIGHT CROSS-LINKERS” (THE UNIVERSITY OF KANSAS, priority 2021, published 2025).

relative iron binding constant (Fe(III)): 35.5
SMILES: O=C(N[C@H]1COC(=O)[C@@H](NC(=O)c2cccc(O)c2O)COC(=O)[C@@H](NC(=O)c2cccc(O)c2O)COC1=O)c1cccc(O)c1O [Enterobactin]
Log K (natural iron chelator): 52
